Our source for the IC50 values is patent US20150166523A1, “BRANCHED CHAIN ALKYL HETEROAROMATIC RING DERIVATIVE” (TAISHO PHARMACEUTICAL CO., LTD., priority 2012, published 2015).

Assay [1] deals with T1, human orexin-1 receptor (hOX1R) (Homo sapiens, UniProt O43613).
T1 construct: expressed in transfected cells; host or cells: Chinese hamster ovary (CHO) cells
T1 sequence (O43613 1-425): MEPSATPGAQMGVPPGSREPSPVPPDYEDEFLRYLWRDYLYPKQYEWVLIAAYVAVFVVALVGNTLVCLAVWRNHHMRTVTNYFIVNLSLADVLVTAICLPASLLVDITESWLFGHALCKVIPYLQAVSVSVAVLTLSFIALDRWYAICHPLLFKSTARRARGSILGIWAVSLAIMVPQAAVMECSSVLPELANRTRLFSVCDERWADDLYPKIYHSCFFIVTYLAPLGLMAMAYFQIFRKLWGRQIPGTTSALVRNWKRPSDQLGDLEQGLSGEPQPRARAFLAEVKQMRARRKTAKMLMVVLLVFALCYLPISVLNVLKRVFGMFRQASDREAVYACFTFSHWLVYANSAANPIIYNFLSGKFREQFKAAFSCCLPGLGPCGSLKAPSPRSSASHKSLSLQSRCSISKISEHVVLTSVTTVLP
Nature of the assay: Measurement of orexin antagonistic activity (intracellular Ca2+ fluorescence, FDSS) on hOX1R. The assay is classed as cell-based. The settings on record: CHO cells forcibly expressing hOX1R; Fluo-4AM; ligand peptide (substituted human orexin-A) 300 pM; compound preincubated 30 minutes; read-out: IC50 Value OX1. The method, then:
(§1) The antagonistic activities of the test compounds on human orexin-1 receptor (hOX1R) and orexin-2 receptor (hOX2R) were measured by modifying from the method described in literature (Toshikatsu Okumura et al., Biochemical and Biophysical Research Communications, 280, 976-981, 2001). Chinese hamster ovary (CHO) cells forcibly expressing the hOX1R and hOX2R were seeded into a 96 well Black clear bottom plate (Nunc) at 20,000 cells per well, which were cultured in Ham's F-12 medium containing 0.1 mM MEM non-essential amino acids, 0.5 mg/mL G418, 10% fetal bovine serum (all by Invitrogen) for 16 hours under the conditions of 37° C., 5% CO2. After removing the medium, 100 μL of 0.5 μM Fluo-4AM ester (Dojin) in an assay buffer (25 mM HEPES (Dojin), Hank's balanced salt solution (Invitrogen), 0.1% bovine serum albumin, 2.5 mM probenecid, 200 μg/mL Amaranth (all by Sigma-Aldrich), pH 7.4) was added and the cells were incubated for 60 minutes at 37° C., 5% CO2. After removing the assay buffer containing fluo-4AM ester, the test compound was dissolved in dimethyl sulfoxide to be 10 mM and diluted with the assay buffer, 150 μL, of which was added and incubated for 30 minutes.
(§2) The reaction was measured for the fluorescence intensity of each well every second for 3 minutes using Functional Drug Screening System (FDSS; Hamamatsu Photonics K.K.), and the antagonistic activity was determined using the maximum fluorescence intensity as the indicator of intracellular Ca2+ concentration.

The target in assay [2] is T2, orexin-2 receptor (hOX2R) (Homo sapiens, UniProt O43614).
T2 construct: expressed in transfected cells; host or cells: Chinese hamster ovary (CHO) cells
T2 sequence (O43614 1-444): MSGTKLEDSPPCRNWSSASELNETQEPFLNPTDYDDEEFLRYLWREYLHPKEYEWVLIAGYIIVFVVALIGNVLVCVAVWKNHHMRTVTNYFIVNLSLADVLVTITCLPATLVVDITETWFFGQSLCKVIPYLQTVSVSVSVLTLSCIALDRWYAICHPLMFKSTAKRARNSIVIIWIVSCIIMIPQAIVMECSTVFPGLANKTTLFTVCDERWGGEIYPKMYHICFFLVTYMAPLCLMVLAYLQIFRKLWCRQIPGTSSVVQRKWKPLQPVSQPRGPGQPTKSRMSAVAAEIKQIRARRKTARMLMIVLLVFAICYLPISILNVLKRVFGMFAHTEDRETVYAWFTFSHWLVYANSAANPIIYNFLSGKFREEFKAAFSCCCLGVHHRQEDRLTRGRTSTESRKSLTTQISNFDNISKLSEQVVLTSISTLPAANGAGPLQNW
Nature of the assay: Measurement of orexin antagonistic activity (intracellular Ca2+ fluorescence, FDSS) on hOX2R. In kind it is cell-based. The settings on record: CHO cells forcibly expressing hOX2R; Fluo-4AM; ligand peptide (substituted human orexin-A) 3 nM; compound preincubated 30 minutes; read-out: IC50 Value OX2. The method, then: as §1, §2

pIC50: −log10 of the molar value.

Consider `CCN(C(=O)c1cc(C)ccc1-n1nccn1)[C@@H](C)Cc1noc(-c2ccc(F)cn2)n1` [Example 47, N-Ethyl-N-{(2S)-1-[5-(5-fluoropyridin-2-yl)-1,2,4-oxadiazol-3-yl]propan-2-yl}-5-methyl-2-(2H-1,2,3-triazol-2-yl) benzamide], for which the negative logarithm of the IC50 (pIC50) (commonly −log10 of the IC50, conventionally taken in molar units) was 9.10 in assay [1] and 8.02 in assay [2].
In the same order, the values of `CCN(C(=O)c1cc(F)ccc1-n1nccn1)[C@@H](C)Cn1nnc(-c2ccc(F)cc2)n1` [Example 66, N-Ethyl-5-fluoro-N-{(2S)-1-[5-(4-fluorophenyl)-2H-tetrazol-2-yl]propan-2-yl}-2-(2H-1,2,3-triazol-2-yl) benzamide] are 8.80 and 6.89.
In the same order, the values of `CCN(C(=O)c1nc(C)ccc1-n1nccn1)[C@@H](C)Cn1cc(-c2ccc(F)c(F)c2)cn1` [Example 27, N-{(2S)-1-[4-(3,4-Difluorophenyl)-1H-pyrazol-1-yl]propan-2-yl}-N-ethyl-6-methyl-3-(2H-1,2,3-triazol-2-yl) pyridine-2-carboxamide] are 8.85 and 7.86.
For `CCN(C(=O)c1nc(C)ccc1-n1nccn1)[C@@H](C)Cn1cc(-c2ccc(F)cn2)nn1` [Example 77, N-Ethyl-N-{(2S)-1-[4-(5-fluoropyridin-2-yl)-1H-1,2,3-triazol-1-yl]propan-2-yl}-6-methyl-3-(2H-1,2,3-triazol-2-yl)pyridine-2-carboxamide], the values for the pIC50 in assay [1] and in assay [2] were 7.31 and 5.84, respectively.
Turning to `Cc1ccc(-n2nccn2)c(C(=O)N(CCO)[C@@H](C)Cn2cc(-c3ccc(F)cc3)cn2)c1` [Example 43, N-{(2S)-1-[4-(4-Fluorophenyl)-1H-pyrazol-1-yl]propan-2-yl}-N-(2-hydroxyethyl)-5-methyl-2-(2H-1,2,3-triazol-2-yl)benzamide], the negative-log IC50 (pIC50) in assay [1] is 8.46; in assay [2], 7.87.
Regarding `CCN(C(=O)c1cc(F)ccc1-n1nccn1)[C@@H](C)Cn1cc(-c2ccc(F)cn2)cn1` [Example 36, N-Ethyl-5-fluoro-N-{(2S)-1-[4-(5-fluoropyridin-2-yl)-1H-pyrazol-1-yl]propan-2-yl}-2-(2H-1,2,3-triazol-2-yl) benzamide], the pIC50 was 8.17 in assay [1] and 6.67 in assay [2].
For `CCN(C(=O)c1nc(C)ccc1-n1nccn1)[C@@H](C)Cn1ccc(-c2ccc(F)c(F)c2)n1` [Example 16, N-[(2S)-1-[3-(3,4-Difiuorophenyl)-1H-pyrazol-1-yl]propan-2-yl]-N-ethyl-6-methyl-3-(2H-1,2,3-triazol-2-yl)pyridine-2-carboxamide] the same measures were 8.74 and 8.01.
As for `CCN(C(=O)c1cc(C)ccc1-n1nccn1)[C@@H](C)Cn1cc(-c2cccc(O)c2)nn1` [Example 93, N-Ethyl-N-{(2S)-1-[4-(3-hydroxyphenyl)-1H-1,2,3-triazol-1-yl]propan-2-yl}-5-methyl-2-(2H-1,2,3-triazol-2-yl)benzamide], the figures for the negative logarithm of the IC50 (pIC50) in assay [1] and in assay [2] were 8.85 and 8.13, respectively.
In the same order, the values of `CCN(C(=O)c1cc(F)ccc1-c1ncccn1)[C@H](C)Cn1ccc(-c2ccc(F)cc2)n1` [Example 12, N-Ethyl-5-fluoro-N-[(2R)-1-[3-(4-fluorophenyl)-1H-pyrazol-1-yl]propan-2-yl]-2-(pyrimidin-2-yl)benzamide] are 6.44 and 6.24.
In the same order, the values of `CCN(C(=O)c1nc(C)ccc1-n1nccn1)[C@@H](C)Cn1cc(-c2ccc(F)cc2)nn1` [Example 83, N-Ethyl-N-{(2S)-1-[4-(4-fluorophenyl)-1H-1,2,3-triazol-1-yl]propan-2-yl}-6-methyl-3-(2H-1,2,3-triazol-2-yl)pyridine-2-carboxamide] are 8.00 and 6.51.
Turning to `CCN(C(=O)c1cc(F)ccc1-c1ncccn1)[C@@H](C)Cn1cc(-c2ccc(F)cn2)nn1` [Example 81, N-Ethyl-5-fluoro-N-{(2S)-1-[4-(5-fluoropyridin-2-yl)-1H-1,2,3-triazol-1-yl]propan-2-yl}-2-(pyrimidin-2-yl) benzamide], the pIC50 was 6.75 in assay [1] and 5.50 in assay [2].
In the same order, the values of `CCN(C(=O)c1cc(F)ccc1-n1nccn1)[C@@H](C)Cn1cc(-c2ccc(F)cn2)nn1` [Example 78, N-Ethyl-5-fluoro-N-{(2S)-1-[4-(5-fluoropyridin-2-yl)-1H-1,2,3-triazol-1-yl]propan-2-yl}-2-(2H-1,2,3-triazol-2-yl)benzamide] are 7.68 and 6.23.
In the same order, the values of `CCN(C(=O)c1cc(Cl)ccc1-c1ncccn1)[C@@H](C)Cn1cc(-c2ccc(F)cn2)cn1` [Example 37, 5-Chloro-N-ethyl-N-{(2S)-1-[4-(5-fluoropyridin-2-yl)-1H-pyrazol-1-yl]propan-2-yl}-2-(pyrimidin-2-yl) benzamide] are 8.15 and 7.08.
Consider `CCN(C(=O)c1cc(F)ccc1-c1ncccn1)[C@@H](C)Cn1ccc(-c2ccc(F)cn2)n1` [Example 8, N-Ethyl-5-fluoro-N-[(2S)-1-[3-(5-fluoropyridin-2-yl)-1H-pyrazol-1-yl]propan-2-yl]-2-(pyrimidin-2-yl) benzamide], for which the pIC50 in assay [1] is 8.82; in assay [2], 7.45.
In the same order, the values of `CCN(C(=O)c1cc(C)ccc1-n1nccn1)[C@@H](C)Cn1nnc(-c2ccc(F)cn2)n1` [Example 85, N-Ethyl-N-{(2S)-1-[5-(5-fluoropyridin-2-yl)-2H-tetrazol-2-yl]propan-2-yl}-5-methyl-2-(2H-1,2,3-triazol-2-yl)benzamide] are 8.89 and 7.56.
For the molecule `Cc1ccc(-n2nccn2)c(C(=O)N(C)[C@@H](C)Cc2noc(-c3ccc(F)cc3)n2)c1` [Example 59, N-{(2S)-1-[5-(4-Fluorophenyl)-1,2,4-oxadiazol-3-yl]propan-2-yl}-N,5-dimethyl-2-(2H-1,2,3-triazol-2-yl) benzamide], the negative logarithm of the IC50 (pIC50) is 9.30 in assay [1] and 8.00 in assay [2].
For `CCN(C(=O)c1cc(F)ccc1-c1ncccn1)[C@H](C)Cn1ccc(-c2ccc(F)cn2)n1` [Example 9, N-Ethyl-5-fluoro-N-[(2R)-1-[3-(5-fluoropyridin-2-yl)-1H-pyrazol-1-yl]propan-2-yl)-2-(pyrimidin-2-yl) benzamide] the same measures were 6.01 and 5.85.
For the molecule `CCN(C(=O)c1nc(C)ccc1-n1nccn1)[C@@H](C)Cn1nnc(-c2ccc(F)cc2)n1` [Example 65, N-Ethyl-N-{(2S)-1-[5-(4-fluorophenyl)-2H-tetrazol-2-yl]propan-2-yl}-6-methyl-3-(2H-1,2,3-triazol-2-yl)pyridine-2-carboxamide], the figures for the pIC50 in assay [1] and in assay [2] were 8.89 and 6.84, respectively.
As to `CCN(C(=O)c1cc(C)ccc1-n1nccn1)[C@@H](C)Cn1cc(-c2ccc(OC)cc2)nn1` [Example 96, N-Ethyl-N-{(2S)-1-[4-(4-methoxyphenyl)-1H-1,2,3-triazol-1-yl]propan-2-yl}-5-methyl-2-(2H-1,2,3-triazol-2-yl)benzamide], the negative-log IC50 (pIC50) in assay [1] is 6.80; in assay [2], 5.08.
Consider `Cc1ccc(-c2ncccn2)c(C(=O)N(C)[C@@H](C)Cc2noc(-c3ccc(F)cn3)n2)c1` [Example 46, N-{(2S)-1-[5-(5-Fluoropyridin-2-yl)-1,2,4-oxadiazol-3-yl]propan-2-yl}-N,5-dimethyl-2-(pyrimidin-2-yl)benzamide], for which the pIC50 in assay [1] was 7.67.
Turning to `C[C@@H](Cn1ccc(-c2ccc(F)cn2)n1)N(C)C(=O)c1cc(F)ccc1-c1ncccn1` [Example 5, 5-Fluoro-N-{(2S)-1-[3-(5-fluoropyridin-2-yl)-1H-pyrazol-1-yl]propan-2-yl}-N-methyl-2-(pyrimidin-2-yl)benzamide], the negative-log IC50 (pIC50) in assay [2] is 7.12.
